Measured values taken from patent US20060258683A1, “Para-sulfonyl substituted phenyl compounds as modulators of ppars” (priority 2003, published 2006).

Columns and labels:
Format in all cases: cell-based
[1] = biological target: T1, PPARα (Homo sapiens, UniProt Q07869); experiment: PPAR-alpha EC50, functional cell (transactivation) assay
T1 construct: expressed in transfected cells; host or cells: CV-1 cells
T1 sequence (Q07869 239-466 limits assumed): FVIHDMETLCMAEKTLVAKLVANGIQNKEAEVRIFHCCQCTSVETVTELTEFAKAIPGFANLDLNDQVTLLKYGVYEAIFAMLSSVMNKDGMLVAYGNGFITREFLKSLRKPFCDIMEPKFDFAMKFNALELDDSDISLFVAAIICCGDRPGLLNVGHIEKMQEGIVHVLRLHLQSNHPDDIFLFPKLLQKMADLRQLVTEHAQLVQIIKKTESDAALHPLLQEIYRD
Excerpt: (§1) The following transfection assay methods are provided by way of example only. Compounds may be screened for functional potency in transient transfection assays in CV-1 cells for their ability to activate the PPAR subtypes (transactivation assay). A previously established chimeric receptor system was utilized to allow comparison of the relative transcriptional activity of the receptor subtypes on the same target gene and to prevent endogenous receptor activation from complicating the interpretation of results. See, for example, Lehmann, J. M.; Moore, L. B.; Smith-Oliver, T. A; Wilkinson, W. O.; Willson, T. M.; Kliewer, S. A., An antidiabetic thiazolidinedione is a high affinity ligand for peroxisome proliferator-activated receptor γ(PPARγ), J. Biol. Chem., 1995, 270, 12953-6. The ligand binding domains for murine and human PPAR-alpha, PPAR-gamma, and PPAR-delta are each fused to the yeast transcription factor GAL4 DNA binding domain. CV-1 cells were transiently transfected with expression vectors for the respective PPAR chimera along with a reporter construct containing five copies of the GAL4 DNA binding site driving expression of secreted placental alkaline phosphatase (SPAP) and p-galactosidase. After 16 h, the medium is exchanged to DME medium supplemented with 10% delipidated fetal calf serum and the test compound at the appropriate concentration. After an additional 24 h, cell extracts are prepared and assayed for alkaline phosphatase and pgalactosidase activity. Alkaline phosphatase activity was corrected for transfection efficiency using the p-galactosidase activity as an internal standard (see, for example, Kliewer, S. A., et. al. Cell 1995, 83, 813-819. Rosiglitazone is used as a positive control in the hPPARγ assay. The positive control in the hPPAR-alpha and hPPAR-delta assays was 2-[4-(2-(3-(4-fluorophenyl)-1heptylureido)ethyl)-phenoxy]-2-methylpropionic acid, which can be prepared as described in Brown, Peter J., et. al. Synthesis (7), 778-782 (1997), or patent publication WO 9736579.
(§2) Compounds of Examples 1-41 were assayed to measure their biological activity with respect to their EC50 values and efficacy for modulating PPAR-alpha, PPAR-gamma, and PPAR-delta as set forth in Table 2.

[2] = biological target: T2, PPARδ (Homo sapiens, UniProt Q03181); experiment: PPAR-delta EC50, functional cell (transactivation) assay
T2 construct: expressed in transfected cells; host or cells: CV-1 cells
T2 sequence (Q03181 211-439 limits assumed): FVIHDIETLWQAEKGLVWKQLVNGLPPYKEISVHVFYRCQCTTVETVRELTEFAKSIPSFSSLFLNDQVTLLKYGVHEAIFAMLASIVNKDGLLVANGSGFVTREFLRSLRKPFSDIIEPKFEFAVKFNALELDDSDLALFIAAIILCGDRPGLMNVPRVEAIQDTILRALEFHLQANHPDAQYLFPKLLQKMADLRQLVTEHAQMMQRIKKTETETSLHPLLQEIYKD
Excerpt: as §1, §2

[3] = biological target: T3, PPARγ (Homo sapiens, UniProt P37231); experiment: PPAR-gamma EC50, functional cell (transactivation) assay
T3 construct: expressed in transfected cells; host or cells: CV-1 cells
T3 sequence (P37231 238-503 limits assumed): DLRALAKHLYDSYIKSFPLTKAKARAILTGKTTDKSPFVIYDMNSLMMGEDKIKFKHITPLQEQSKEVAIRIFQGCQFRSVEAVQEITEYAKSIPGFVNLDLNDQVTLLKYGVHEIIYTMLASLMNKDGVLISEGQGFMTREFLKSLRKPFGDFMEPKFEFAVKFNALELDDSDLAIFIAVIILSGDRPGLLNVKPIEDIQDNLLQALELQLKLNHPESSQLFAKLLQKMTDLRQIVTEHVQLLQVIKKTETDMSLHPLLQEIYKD
Excerpt: as §1, §2

Compound	EC50 [1] [µM]	EC50 [2] [µM]	EC50 [3] [µM]
CC(C)(Oc1ccc(S(=O)(=O)N2CCN(c3ccc(F)cc3)CC2)cc1)C(=O)O	> 100	1 to 100	> 100
Cc1ccc(N2CCN(S(=O)(=O)c3ccc(OC(C)(C)C(=O)O)cc3)CC2)c(C)c1	1 to 100	1 to 100	> 100
CC(C)(Oc1ccc(S(=O)(=O)N2CCN(c3ccccc3)CC2)cc1)C(=O)O	> 100	1 to 100	> 100
CC(C)(Oc1ccc(S(=O)(=O)N2CCN(c3ccccc3F)CC2)cc1)C(=O)O	> 100	1 to 100	> 100
CCc1cnc(N2CCN(S(=O)(=O)c3ccc(OC(C)(C)C(=O)O)cc3)CC2)nc1	1 to 100	1 to 100	1 to 100
CC(C)(Oc1ccc(S(=O)(=O)N2CCN(c3ccc(Cl)c(Cl)c3)CC2)cc1)C(=O)O	1 to 100	1 to 100	1 to 100
CC(C)(Oc1ccc(S(=O)(=O)N2CCN(c3ccccn3)CC2)cc1)C(=O)O	> 100	> 100	> 100
Cc1cccc(N2CCN(S(=O)(=O)c3ccc(OC(C)(C)C(=O)O)cc3)CC2C)c1 (stereo not drawn)	> 100	1 to 100	> 100
CC(C)(Oc1ccc(S(=O)(=O)N2CCN(c3cccc(C(F)(F)F)c3)CC2)cc1)C(=O)O	> 100	1 to 100	1 to 100
Cc1cc(S(=O)(=O)N2CCN(c3ccc(Cl)c(Cl)c3)CC2)ccc1OC(C)(C)C(=O)O	1 to 100	< 1	1 to 100
Cc1cc(S(=O)(=O)N2CCN(c3ccc(Cl)cc3)CC2)ccc1OC(C)(C)C(=O)O	> 100	< 1	1 to 100
Cc1ccc(N2CCN(S(=O)(=O)c3ccc(OC(C)(C)C(=O)O)c(C)c3)CC2)c(C)c1	> 100	1 to 100	1 to 100
Cc1cccc(N2CCN(S(=O)(=O)c3ccc(OC(C)(C)C(=O)O)c(C)c3)CC2C)c1 (stereo not drawn)	> 100	< 1	1 to 100
Cc1ccc(N2CCN(S(=O)(=O)c3ccc(OC(C)(C)C(=O)O)c(C)c3)CC2C)cc1C (stereo not drawn)	> 100	1 to 100	> 100
Cc1cc(S(=O)(=O)N2CCN(c3cc(Cl)ccc3C)C(C)C2)ccc1OC(C)(C)C(=O)O (stereo not drawn)	> 100	1 to 100	> 100
Cc1cc(S(=O)(=O)N2CCN(CCc3ccccc3)CC2)ccc1OC(C)(C)C(=O)O	> 100	1 to 100	> 100
Cc1cc(S(=O)(=O)N2CCN(c3ccc(C#N)cc3)CC2)ccc1OC(C)(C)C(=O)O	> 100	1 to 100	> 100
Cc1cc(S(=O)(=O)N2CCN(Cc3ccc(F)cc3)CC2)ccc1OC(C)(C)C(=O)O	> 100	1 to 100	1 to 100
COc1ccc(N2CCN(S(=O)(=O)c3ccc(OC(C)(C)C(=O)O)c(C)c3)CC2)cc1	> 100	1 to 100	1 to 100
Cc1cc(S(=O)(=O)N2CCN(c3cccc(Br)c3)CC2)ccc1OC(C)(C)C(=O)O	> 100	< 1	1 to 100
Cc1cc(S(=O)(=O)N2CCN(c3ccc(C(C)(C)C)cc3)CC2)ccc1OC(C)(C)C(=O)O	> 100	1 to 100	1 to 100

Compound	EC50 [1] [µM]	EC50 [2] [µM]	EC50 [3] [µM]
COc1ccc(N2CCN(S(=O)(=O)c3ccc(OC(C)(C)C(=O)O)c(C)c3)CC2)cc1OC	1 to 100	1 to 100	1 to 100
Cc1cc(S(=O)(=O)N2CCN(c3ccc(C(F)(F)F)cc3[N+](=O)[O-])CC2)ccc1OC(C)(C)C(=O)O	> 100	1 to 100	1 to 100
COc1ccccc1N1CCN(S(=O)(=O)c2ccc(OC(C)(C)C(=O)O)c(C)c2)CC1	> 100	1 to 100	1 to 100
Cc1cc(S(=O)(=O)N2CCN(C3CCCCC3)CC2)ccc1OC(C)(C)C(=O)O	> 100	1 to 100	> 100
Cc1ccc(C)c(N2CCN(S(=O)(=O)c3ccc(OC(C)(C)C(=O)O)c(C)c3)CC2)c1	> 100	1 to 100	1 to 100
Cc1cc(S(=O)(=O)N2CCN(CC3CCCCC3)CC2)ccc1OC(C)(C)C(=O)O	> 100	1 to 100	1 to 100
Cc1cc(S(=O)(=O)N2CCN(c3ccccc3C#N)CC2)ccc1OC(C)(C)C(=O)O	> 100	1 to 100	1 to 100
Cc1cc(S(=O)(=O)N2CCN(c3ccc([N+](=O)[O-])cc3)CC2)ccc1OC(C)(C)C(=O)O	> 100	1 to 100	1 to 100
Cc1cc(S(=O)(=O)N2CCN(C(=O)c3ccco3)CC2)ccc1OC(C)(C)C(=O)O	> 100	1 to 100	> 100
COc1cccc(N2CCN(S(=O)(=O)c3ccc(OC(C)(C)C(=O)O)c(C)c3)CC2)c1	1 to 100	1 to 100	1 to 100
Cc1cc(S(=O)(=O)N2CCN(C(c3ccc(F)cc3)c3ccc(F)cc3)CC2)ccc1OC(C)(C)C(=O)O	1 to 100	1 to 100	1 to 100
Cc1cc(S(=O)(=O)N2CCN(c3cccc(Cl)c3)CC2)ccc1OC(C)(C)C(=O)O	> 100	1 to 100	1 to 100
Cc1cc(S(=O)(=O)N2CCN(c3ccccc3Cl)CC2)ccc1OC(C)(C)C(=O)O	> 100	1 to 100	1 to 100
Cc1cc(S(=O)(=O)N2CCN(c3ccccc3F)CC2)ccc1OC(C)(C)C(=O)O	> 100	< 1	1 to 100
CCOc1ccccc1N1CCN(S(=O)(=O)c2ccc(OC(C)(C)C(=O)O)c(C)c2)CC1	1 to 100	1 to 100	1 to 100
Cc1cc(S(=O)(=O)N2CCN(C/C=C/c3ccccc3)CC2)ccc1OC(C)(C)C(=O)O	> 100	1 to 100	1 to 100
Cc1cc(S(=O)(=O)N2CCN(c3ccc(F)cc3)CC2)ccc1OC(C)(C)C(=O)O	> 100	< 1	1 to 100
Cc1cc(S(=O)(=O)N2CCN(c3ccccc3)CC2)ccc1OC(C)(C)C(=O)O	> 100	1 to 100	1 to 100
Cc1cc(S(=O)(=O)N2CCN(C(c3ccccc3)c3ccccc3)CC2)ccc1OC(C)(C)C(=O)O	> 100	1 to 100	1 to 100
Cc1cc(S(=O)(=O)N2CCN(C(c3ccccc3)c3ccc(Cl)cc3)CC2)ccc1OC(C)(C)C(=O)O (stereo not drawn) [drawing 116]	1 to 100	1 to 100	1 to 100
Cc1cc(S(=O)(=O)N2CCN(C(c3ccccc3)c3ccc(Cl)cc3)CC2)ccc1OC(C)(C)C(=O)O (stereo not drawn) [drawing 127]	1 to 100	1 to 100	1 to 100
